# Results from patent US20250163104A1, “MACROCYCLIC IMMUNOMODULATORS” (priority 2021, published 2025).
# Where a SMILES comes first, the peptide text is derived from it. Bridges are numbered along the chain shown (N, C = ends). [ ]: non-standard residue; d: D form. The star is where a group is joined. ξ: configuration not given here. Ala(1H-tetrazol-5-yl) = N[C@@H](Cc1nnn[nH]1)C(=O)O; Phe(4-COOH) = N[C@@H](Cc1ccc(C(=O)O)cc1)C(=O)O; Bip = N[C@@H](Cc1ccc(-c2ccccc2)cc1)C(=O)O; Phe(3-Me) = Cc1cccc(C[C@H](N)C(=O)O)c1; Val(3-OH) = CC(C)(O)[C@H](N)C(=O)O; 4Pal = N[C@@H](Cc1ccncc1)C(=O)O; Cha = N[C@@H](CC1CCCCC1)C(=O)O; Cit = NC(=O)NCCC[C@H](N)C(=O)O; dCha = N[C@H](CC1CCCCC1)C(=O)O; Thr(3ξ) = CC(O)[C@H](N)C(=O)O; Carboxymethyl = O=C(O)C*; Orn = NCCC[C@H](N)C(=O)O; Pra = C#CC[C@H](N)C(=O)O; Dab = NCC[C@H](N)C(=O)O; Dap = NC[C@H](N)C(=O)O; ξPra = C#CCC(N)C(=O)O
# Target: T1, human PD-1 / PD-L1-Ig binding on Jurkat cell line over-expressing human PD-1 (Jurkat-PD-1) (Homo sapiens, UniProt Q15116)
# T1 construct: expressed in transfected cells; host or cells: Jurkat
# T1 sequence (Q15116 25-288): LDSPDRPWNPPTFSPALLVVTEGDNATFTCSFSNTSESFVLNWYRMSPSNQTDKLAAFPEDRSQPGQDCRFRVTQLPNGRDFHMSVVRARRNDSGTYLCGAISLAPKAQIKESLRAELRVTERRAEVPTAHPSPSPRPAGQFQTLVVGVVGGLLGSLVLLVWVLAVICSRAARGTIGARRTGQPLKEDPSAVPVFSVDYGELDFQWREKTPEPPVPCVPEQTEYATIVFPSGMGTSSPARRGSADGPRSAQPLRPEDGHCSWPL
# Test: Jurkat-PD-1 Cell Binding High-Content Screening Assay (CBA)
# Type: cell-based
# Details: Jurkat-PD-1 cells, PE-labeled PD-L1-Ig 20 nM final; read-out: Jurkat HPD1_PDL1 IC50
# Outline: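 Cell-bound PE-labeled PD-L1-Ig (20 nM final, 1 h) measured by high-content imaging after fixation and Hoechst 33342 counterstain. Compound was applied first for 2 h at 37° C. to Jurkat cells over-expressing human PD-1 in DMEM with 10% FCS.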
row,SMILES,IC50
1,C#CCC(NC(=O)[C@H](CCN)NC(=O)[C@@H]1CSCC(=O)N[C@@H](Cc2ccncc2)C(=O)N[C@@H](Cc2ccc(OCC(=O)O)cc2)C(=O)N[C@@H](CC(=O)O)C(=O)N[C@@H](Cc2c[nH]c3ccccc23)C(=O)N[C@@H](C(C)C)C(=O)N[C@@H](Cc2ccc(-c3ccccc3)cc2)C(=O)N[C@@H]([C@@H](C)CC)C(=O)N[C@@H](CCCN)C(=O)N[C@H](CC(C)C)C(=O)N[C@@H](CCN)C(=O)N[C@@H](CC(C)C)C(=O)N[C@@H](C(C)C)C(=O)N[C@@H]([C@@H](C)O)C(=O)N1)C(N)=O (stereo partly drawn) [Compound 1759] ({CH2CO}-[4Pal]Y(Carboxymethyl)DWV[Bip]I[Orn][dL][Dab]LVTC[Dab][ξPra]-NH2; thioether N-14),7.2 nM
2,Cc1cccc(C[C@@H]2NC(=O)[C@H](Cc3nn[nH]n3)NC(=O)[C@H](Cc3ccc(OCC(=O)O)cc3)NC(=O)[C@H](CN)NC(=O)CSC[C@@H](C(=O)N[C@@H](C)C(N)=O)NC(=O)[C@H]([C@@H](C)O)NC(=O)[C@H](C(C)C)NC(=O)[C@H](CC3CCCCC3)NC(=O)[C@H](CCN)NC(=O)[C@@H](CC(C)C)NC(=O)[C@H](CCCN)NC(=O)[C@H](CCCNC(N)=O)NC(=O)[C@H](Cc3ccc(-c4ccccc4)cc3)NC(=O)[C@H](C(C)C)NC2=O)c1 [Compound 1327] ({CH2CO}-[Dap]Y(Carboxymethyl)[Ala(1H-tetrazol-5-yl)][Phe(3-Me)]V[Bip][Cit][Orn][dL][Dab][Cha]VTCA-NH2; thioether N-14),31.6 nM
3,C#CC[C@H](NC(=O)[C@H](CCN)NC(=O)[C@@H]1CSCC(=O)N[C@@H](CCCN)C(=O)N[C@@H](Cc2ccc(OCC(=O)O)cc2)C(=O)N[C@@H](CC(=O)O)C(=O)N[C@@H](Cc2cccc(C)c2)C(=O)N[C@@H](Cc2ccc(OCC(=O)O)cc2)C(=O)N[C@@H](Cc2ccc(-c3ccccc3)cc2)C(=O)N[C@@H](Cc2ccc(OCC(=O)O)cc2)C(=O)N[C@@H](CCCN)C(=O)N[C@H](CC(C)C)C(=O)N[C@@H](CCN)C(=O)N[C@@H](CC2CCCCC2)C(=O)N[C@@H](C(C)(C)O)C(=O)N[C@@H]([C@@H](C)O)C(=O)N1)C(N)=O [Compound 1854] ({CH2CO}-[Orn]Y(Carboxymethyl)D[Phe(3-Me)]Y(Carboxymethyl)[Bip]Y(Carboxymethyl)[Orn][dL][Dab][Cha][Val(3-OH)]TC[Dab][Pra]-NH2; thioether N-14),15.1 nM
4,CC(C)C[C@@H]1NC(=O)[C@H](Cc2c[nH]c3ccccc23)NC(=O)[C@H](CC(=O)O)NC(=O)[C@H](Cc2ccc(O)cc2)NC(=O)[C@H](Cc2ccccc2)NC(=O)CSC[C@@H](C(=O)NCC(N)=O)NC(=O)[C@H](CO)NC(=O)[C@H](C(C)C)NC(=O)[C@H](CC2CCCCC2)NC(=O)[C@H](CC(N)=O)NC(=O)[C@@H](CC(C)C)NC(=O)[C@H](CCCN)NC(=O)[C@H](C(C)C)NC(=O)[C@H](Cc2ccc(-c3ccccc3)cc2)NC1=O [Compound 1334] ({CH2CO}-FYDWL[Bip]V[Orn][dL]N[Cha]VSCG-NH2; thioether N-14),26.9 nM
5,CC(C)[C@@H]1NC(=O)[C@H](Cc2c[nH]c3ccccc23)NC(=O)[C@H](CC(=O)O)NC(=O)[C@H](Cc2ccc(C(=O)O)cc2)NC(=O)[C@H](Cc2ccncc2)NC(=O)CSC[C@@H](C(=O)N[C@@H](C)C(N)=O)NC(=O)[C@H]([C@@H](C)O)NC(=O)[C@H](C(C)C)NC(=O)[C@H](CC2CCCCC2)NC(=O)[C@H](CCN)NC(=O)[C@@H](CC2CCCCC2)NC(=O)[C@H](CCCN)NC(=O)[C@H](CCCNC(N)=O)NC(=O)[C@H](Cc2ccc(-c3ccccc3)cc2)NC1=O [Compound 1640] ({CH2CO}-[4Pal][Phe(4-COOH)]DWV[Bip][Cit][Orn][dCha][Dab][Cha]VTCA-NH2; thioether N-14),25.7 nM
6,CC[C@H](C)[C@@H]1NC(=O)[C@H](Cc2ccc(-c3ccccc3)cc2)NC(=O)[C@H](C(C)C)NC(=O)[C@H](Cc2c[nH]c3ccccc23)NC(=O)[C@H](CC(=O)O)NC(=O)[C@H](Cc2ccc(O)cc2)NC(=O)[C@H](CC(N)=O)NC(=O)CSC[C@@H](C(=O)NCC(N)=O)NC(=O)[C@H]([C@@H](C)O)NC(=O)[C@H](C(C)C)NC(=O)[C@H](CC(C)C)NC(=O)[C@H](CCCCN)NC(=O)[C@@H](CC(C)C)NC(=O)[C@H](CCCN)NC1=O [Compound 1131] ({CH2CO}-NYDWV[Bip]I[Orn][dL]KLVTCG-NH2; thioether N-14),24.8 nM
7,CC[C@H](C)[C@@H]1NC(=O)[C@H](Cc2ccc(-c3ccccc3)cc2)NC(=O)[C@H](C(C)C)NC(=O)[C@H](Cc2c[nH]c3ccccc23)NC(=O)[C@H](CC(=O)O)NC(=O)[C@H](Cc2ccc(OCC(=O)O)cc2)NC(=O)[C@H](CN)NC(=O)CSC[C@@H](C(=O)N[C@@H](C)C(N)=O)NC(=O)[C@H]([C@@H](C)O)NC(=O)[C@H](C(C)C)NC(=O)[C@H](Cc2ccc(O)cc2)NC(=O)[C@H](CCN)NC(=O)[C@@H](CC(C)C)NC(=O)[C@H](CCCN)NC1=O [Compound 1678] ({CH2CO}-[Dap]Y(Carboxymethyl)DWV[Bip]I[Orn][dL][Dab]YVTCA-NH2; thioether N-14),52 nM

# Second part, the compound after the results:
row,IC50,SMILES
1,6.2 nM,COc1ccc(C[C@@H]2NC(=O)[C@H](C(C)O)NC(=O)CSC[C@@H](C(=O)N[C@@H](CCN)C(N)=O)NC(=O)[C@H](Cc3c[nH]cn3)NC(=O)[C@H](C(C)(C)O)NC(=O)[C@H](CC3CCCCC3)NC(=O)[C@H](CCN)NC(=O)[C@@H](CC(C)C)NC(=O)[C@H](CCCN)NC(=O)[C@H](Cc3ccc(OCC(=O)O)cc3)NC(=O)[C@H](Cc3ccc(-c4ccccc4)cc3)NC(=O)[C@H](Cc3ccc(OCC(=O)O)cc3)NC(=O)[C@H](Cc3cccc(C)c3)NC(=O)[C@H](CC(=O)O)NC2=O)cc1 (stereo partly drawn) [Compound 2674] ({CH2CO}-[Thr(3ξ)]Y(Me)D[Phe(3-Me)]Y(Carboxymethyl)[Bip]Y(Carboxymethyl)[Orn][dL][Dab][Cha][Val(3-OH)]HC[Dab]-NH2; thioether N-14)
2,35 nM,Cc1cccc(C[C@@H]2NC(=O)[C@H](CC(=O)O)NC(=O)[C@H](Cc3ccc(OCC(=O)O)cc3)NC(=O)[C@H](C(C)O)NC(=O)CSC[C@@H](C(=O)N[C@H](CC(N)=O)C(N)=O)NC(=O)[C@H](C(C)O)NC(=O)[C@H](C(C)C)NC(=O)[C@H](CC3CCCCC3)NC(=O)[C@H](CCN)NC(=O)[C@@H](CC(C)C)NC(=O)[C@H](CCCN)NC(=O)[C@H](Cc3ccc(OCC(=O)O)cc3)NC(=O)[C@H](Cc3ccc(-c4ccccc4)cc3)NC(=O)[C@H](Cc3ccc(OCC(=O)O)cc3)NC2=O)c1 (stereo partly drawn) [Compound 2640] ({CH2CO}-[Thr(3ξ)]Y(Carboxymethyl)D[Phe(3-Me)]Y(Carboxymethyl)[Bip]Y(Carboxymethyl)[Orn][dL][Dab][Cha]V[Thr(3ξ)]C[dN]-NH2; thioether N-14)
3,3.3 nM,CC(C)C[C@H]1NC(=O)[C@H](CCCN)NC(=O)[C@H](C(C)C)NC(=O)[C@H](Cc2ccc(-c3ccccc3)cc2)NC(=O)[C@H](C(C)C)NC(=O)[C@H](Cc2c[nH]c3ccccc23)NC(=O)[C@H](CC(=O)O)NC(=O)[C@H](Cc2ccc(OCC(=O)O)cc2)NC(=O)[C@H](C(C)O)NC(=O)CSC[C@@H](C(=O)N[C@H](CC(N)=O)C(N)=O)NC(=O)[C@H](CO)NC(=O)[C@H](C(C)C)NC(=O)[C@H](CC2CCCCC2)NC(=O)[C@H](CCN)NC1=O (stereo partly drawn) [Compound 2565] ({CH2CO}-[Thr(3ξ)]Y(Carboxymethyl)DWV[Bip]V[Orn][dL][Dab][Cha]VSC[dN]-NH2; thioether N-14)
